From patent US20140099256A1, “RADIOACTIVE LUMINESCENT NANOPARTICLE COMPOSITIONS” (The Board of Regents of the University of Texas System, priority 2012, published 2014) come the findings set out here.

Holding throughout (format): in vivo, BALB/c mice
A short description of data set [1]: Blood pharmacokinetics of Cu(II)-GSSG complex and GS-CuNPs. The settings on record: 24 h p.i. How it is done:
(§1) FIGS. 2A to 2E show (A) Ex vivo fluorescent images of urine of control mice or mice injected with luminescent GS-CuNPs (λex=510 nm, λem=790 nm); (B) Copper contents (n=6) in the urine at different times post injection (p.i.); (C) Biodistribution of Cu(II)-GSSG complex and luminescent GS-CuNPs in BALB/c mice (n=6) 24 h after the tail-vein injection; (D) Liver-tourine ratios of Cu(II)-GSSG complex and GS-CuNPs at 24 h p.i; (E) Pharmacokinetics (n=3) of the renal clearable Cu(II)-GSSG complex and luminescent GS-CuNPs in 24 h p.i.
(§2) The detailed biodistribution studies of mice injected with GS-CuNPs and Cu(II)-GSSG complexes were consistent with their renal clearance profiles (FIG. 2C). In view of the background of copper, the average copper contents in the various organs/tissues and urine from three BALB/c mice have been deducted. […] However, compared to free Cu ions that often bind to caeruloplasmin and hephaestin and mainly accumulate in the liver, both GS-CuNPs and Cu(II)-GSSG complexes had much lower accumulation in RES, which was because GSH minimized the serum protein absorption and render them the efficient renal clearance. […] As a result, liver-to-urine ratio (−0.16) of CuNPs is more than 4 times lower than that of Cu(II)-GSSG complex (FIG. 2D).

A short description of data set [2]: Biodistribution of Cu(II)-GSSG complex and GS-CuNPs after tail-vein injection. Particulars: 24 h after tail-vein injection, background copper deducted. On the procedure: as §1, §2
A short description of data set [3]: Renal clearance kinetics (copper content in urine) of GS-CuNPs and Cu(II)-GSSG complex. How it is done:
as §1
Although “being small” is generally seen as an efficient approach to boost the clearance of biomaterials from the body, the avidity between materials and serum proteins also plays an important role in the excretion. Seemingly a dilemma, it is hard to know which factors in the renal excretion of GS-CuNPs and Cu(II)-GSSG complex are reliably important. As such, the renal clearance kinetics and biodistribution of GS-CuNPs and Cu(II)-GSSG complex were evaluated in BALB/c mice (FIGS. 2A and 2B). For GS-CuNPs, 78.5±3.5% of injected copper was excreted from the body into the urine after 24 h p.i., and over 60% of copper was actually eliminated from the body in the first 2 h p.i (FIG. 2B).

On to Cu(II)-GSSG complex, for which, in data set [1], the “distribution half-life t½α” value came to 0.228 ± 0.0167 h and the “terminal elimination half-life (t½β)” value worked out at 4.93 ± 0.94 h. Moreover, in data set [2], the “copper found in the liver” value stood at 29.6±8.1 % ID and the “copper found in the spleen” value is about 0.1 % ID. The “additional increase in urine excretion of copper metal” value in data set [3] (after 2 h) is −18%. The same substance gave a copper found in the urine in data set [3] (at 2 h p.i.) of 22 % ID.
